In patent US12408664B2 (priority 2018, dated 2025):
“Also recorded” adds a separate entry of the source. Where two headings read alike, the source gives them in different places.

Assays:
R. solani [1] = assay: Established liquid cultures, two days calcium propionate then washout; format: cell-based, Rhizoctonia solani
Experimental: To further examine the impact of calcium propionate on established liquid cultures, MEB was inoculated by plug transfer and cultures were allowed to grow for one to six days. Following this, calcium propionate was added to active cultures to a final concentration of 1%, 2%, or 5% (w/v); control cultures had no calcium propionate. Calcium propionate was then added to established one to six day old cultures and cultures were allowed to grow in the presence of calcium propionate for two days, after which, calcium propionate was washed out and cultures were returned to MEB only. Growth following calcium propionate washout was recorded over 14 days.

R. solani [2] = assay: Zone of inhibition assay on PDA plates; format: cell-based, Rhizoctonia solani
Experimental: (§1) To test the efficacy of calcium propionate (CaP) against the four microbes listed above, zone of inhibition assays were performed. Wells were bored in potato dextrose agarose (PDA) plates then amended with […] calcium propionate at concentrations of 0.1%, 0.2%, 0.3%, 0.4%, and 0.5% (w/v). Control plates were amended with […] dH2O. Plates were inoculated using plugs from active cultures. Growth patterns were observed over seven days. Representative results with M. poae are shown at three days following inoculation (FIG. 1A) and seven days following inoculation (FIG. 1B).
(§2) The zone of inhibition assays described in Example 1 were performed using calcium propionate doses of 0.5%, 1%, 2%, 3%, and 4% (w/v). Growth diameter was recorded at 2, 5, and 7 days post inoculation. The data shown in Table 1 represent the average±standard deviation (SD) of two replicate plates for each strain tested.
(§3) Zone of inhibition assays using PDA plates amended with 5-12% (w/v) calcium propionate were performed as described above. As a control, plates were amended with a composition comprising propiconazole, a commonly used fungicidal treatment for microbe infection of turfgrass, sold under the trademark Banner MaxxII®. Growth diameter was recorded for 13 days post inoculation. The data shown in Table 2 represent the average±standard deviation (SD) of three replicate plates for each strain tested. Inoculants of S. homoeocarpa, M. poae, and R. solani generally grow to luxuriant culture, covering the entire surface of the plate (8.5 cm growth) in 7 days.

dollar spot = assay: Golf Course 1: infected live turfgrass, visual inspection for dollar spot; format: in vivo, Scerotinia homoeocarpa
Experimental: Calcium propionate was dissolved in water to form a 5% (w/v) solution. […] Zone 1 was left untreated, Zone 2 was treated with 2.5 grams calcium propionate per square meter, Zone 3 was treated with 5 grams of calcium propionate per square meter, and Zone 4 was treated with 10 grams of calcium propionate per square meter. The turfgrass was comprised primarily of Festuca rubra. The calcium propionate 5% (w/v) solution was sprayed onto the turfgrass.
The four zones were visually inspected for dollar spot after 10 days. […] In contrast, dollar spot could, still be visually detected in untreated Zone 1.
Thereafter, all of the zones (1-4) were treated with 5 grams of calcium propionate per square meter. The calcium propionate 5% (w/v) solution was sprayed onto the turfgrass every 10 to 14 days.

S. homoeocarpa [3] = assay: Plug transfer to PDA plates without calcium propionate (fungistatic or fungicidal); format: cell-based, Scerotinia homoeocarpa
S. homoeocarpa [4] = assay: Zone of inhibition assay on PDA plates; format: cell-based, Scerotinia homoeocarpa
Experimental: as §1, §2, §3

S. homoeocarpa [5] = assay: New inoculants in MEB liquid culture amended with calcium propionate; format: cell-based, Scerotinia homoeocarpa; conditions: MEB with 1, 2, 5 and 10% (w/v) calcium propionate; five days
Experimental: To examine the effective dose range in liquid culture, malt extract broth (MEB) was prepared and amended with calcium propionate at concentrations of 1, 2, 5 and 10% (w/v). Unamended MEB was used as a control for growth. Each of the four microbes identified in Example 1 was tested twice by inoculating MEB using agarose plugs from luxuriant cultures. Growth was observed over five days. In each microbe examined, visible growth in liquid culture was apparent by day 2 following inoculation with well-established growth by 4 days in the absence of calcium propionate.

M. poae = format: cell-based, Magnaporthe poae
[6] = 5-12% (w/v) calcium propionate, day 2, average ± SD of three plates
[7] = 5-12% (w/v) calcium propionate, day 3, average ± SD of three plates
[8] = 5-12% (w/v) calcium propionate, day 6, average ± SD of three plates
[9] = 5-12% (w/v) calcium propionate, day 7, average ± SD of three plates
[10] = 5-12% (w/v) calcium propionate, day 10, average ± SD of three plates
[11] = 5-12% (w/v) calcium propionate, day 13, average ± SD of three plates
[12] = wells 0.1-0.5% (w/v) calcium propionate, observed over seven days
[13] = wells 0.5-4% (w/v) calcium propionate, day 2, average ± SD of two plates
[14] = wells 0.5-4% (w/v) calcium propionate, day 5, average ± SD of two plates
[15] = wells 0.5-4% (w/v) calcium propionate, day 7, average ± SD of two plates
[16] = 2-4% (w/v) calcium propionate, repeat, data not shown
[17] = wells 0.5-4% (w/v) calcium propionate, seven day growth period

## CCC(=O)[O-].CCC(=O)[O-].[Ca+2] [calcium propionate]
R. solani [1]; 1%, 2% or 5% (w/v), established one to six day old cultures, two days
  growth while calcium propionate was present, R. solani: growth was inhibited
R. solani [1]; all concentrations tested (1-5% w/v)
  growth inhibition over two weeks after removal, R. solani: some minor growth inhibition
R. solani [1]; concentrations examined (1-5% w/v)
  growth three days following removal of calcium propionate, R. solani: robust growth was observed
R. solani [2]; [6]
  Growth, R. solani: 2.6 ± 0.3 cm
R. solani [2]; [7]
  Growth, R. solani: 4.3 ± 0.3 cm
R. solani [2]; [8]
  Growth, R. solani: 8.5 ± 0 cm
R. solani [2]; [9]
  Growth, R. solani: 8.5 ± 0 cm
R. solani [2]; [10]
  Growth, R. solani: 8.5 ± 0 cm
R. solani [2]; [11]
  Growth, R. solani: 8.5 ± 0 cm
R. solani [2]; calcium propionate concentrations up to 12% (w/v)
  inhibition of R. solani growth: no inhibition
R. solani [2]; [12]
  growth inhibition, R. solani: no growth inhibition was observed
R. solani [2]; wells 0.5-4% (w/v) calcium propionate
  growth inhibition, R. solani: uninhibited
R. solani [2]; [13]
  Growth, R. solani: 3.3 ± 0.4 cm
R. solani [2]; [14]
  Growth, R. solani: 8.5 ± 0 cm
R. solani [2]; [15]
  Growth, R. solani: 8.5 ± 0 cm
Dollar spot; Zone 2: 2.5 grams per square meter, 5% (w/v) solution sprayed, after 10 days
  visual detection of dollar spot: could no longer be visually detected
Dollar spot; Zone 3: 5 grams per square meter, 5% (w/v) solution sprayed, after 10 days
  visual detection of dollar spot: could no longer be visually detected
Dollar spot; Zone 4: 10 grams per square meter, 5% (w/v) solution sprayed, after 10 days
  visual detection of dollar spot: could no longer be visually detected
Dollar spot; zones 1-4, 5 grams per square meter every 10 to 14 days, several months (late summer to early spring)
  visual detection of dollar spot: could not be visually detected
S. homoeocarpa [3]; 5% (w/v) calcium propionate
  fungistatic or fungicidal effect, S. homoeocarpa: fungicidal effect
S. homoeocarpa [3]; plugs initially grown on 5, 7.5, 10 or 12% (w/v) calcium propionate, observed 14 days
  growth on unamended PDA after plug transfer, S. homoeocarpa: No growth was seen
S. homoeocarpa [4]; [16]
  growth inhibition in repeated experiments, S. homoeocarpa: mixed
S. homoeocarpa [4]; [6]
  Growth, S. homeocarpa: 2.8 ± 0.2 cm
S. homoeocarpa [4]; [7]
  Growth, S. homeocarpa: 3.5 ± 0.3 cm
S. homoeocarpa [4]; [8]
  Growth, S. homeocarpa: 3.8 ± 0.1 cm
S. homoeocarpa [4]; [9]
  Growth, S. homeocarpa: 4.3 ± 0.3 cm
S. homoeocarpa [4]; [10]
  Growth, S. homeocarpa: 6.2 ± 0.3 cm
S. homoeocarpa [4]; [11]
  Growth, S. homeocarpa: 7.8 ± 0.6 cm
S. homoeocarpa [4]; [12]
  growth inhibition, S. homoeocarpa: no growth inhibition was observed
S. homoeocarpa [4]; [13]
  Growth, S. homeocarpa: 1.9 ± 0.3 cm
S. homoeocarpa [4]; [14]
  Growth, S. homeocarpa: 4.5 ± 0.5 cm
S. homoeocarpa [4]; [15]
  Growth, S. homeocarpa: 6.08±0.57 cm
S. homoeocarpa [4]; wells 0.5-4% (w/v) calcium propionate, day 7, average ± SD of two plates, listed as Cap
  Growth, S. homeocarpa: 4.5 ± 0.6 cm
S. homoeocarpa [4]; [17]
  growth inhibition, S. homoeocarpa: clear growth inhibition
S. homoeocarpa [5]
  growth in liquid culture, S. homoeocarpa: no growth was observed
M. poae; [16]
  growth inhibition in repeated experiments, M. poae: mixed
M. poae; [6]
  Growth, M. Poae: 1.1 ± 0.1 cm
M. poae; [7]
  Growth, M. Poae: 1.5 ± 0.2 cm
M. poae; [8]
  Growth, M. Poae: 2.1 ± 0.4 cm
M. poae; [9]
  Growth, M. Poae: 3.1±0.4 cm
M. poae; [10]
  Growth, M. Poae: 5.8 ± 0.7 cm
M. poae; [11]
  Growth, M. Poae: 8.2 ± 0.5 cm
M. poae; [12]
  growth inhibition, M. poae: no growth inhibition was observed
M. poae; [13]
  Growth, M. Poae: 1.5 ± 0.2 cm
M. poae; [14]
  Growth, M. Poae: 4.3 ± 0.1 cm
M. poae; [15]
  Growth, M. Poae: 6.9 ± 0.1 cm
M. poae; [17]
  growth inhibition, M. poae: clear growth inhibition; also recorded: inhibited to a similar degree
